In patent US11420962B2, “Indene derivatives useful in treating pain and inflammation” (TARO PHARMACEUTICALS INC., priority 2018, dated 2022):

Key:
T cells = experiment: T cell proliferation (anti-CD3/anti-CD28 dynabeads, CCK-8); type: cell-based, mice; conditions: Table 4, mouse T cells, 72 hours after dynabeads, read-out: Scoring (IC50, cell proliferation)
Procedure: Spleens were obtained from six male, CD-1 outbred mice, approximately 8 weeks old. Cells were harvested under sterile conditions by forcing each spleen though a cell filter (pore size 100 μm diameter). A homogenous cell suspension was obtained by washing the cells in fresh medium and passing cells through a smaller cell filter (pore size 70 μm).
Untouched T cells were isolated using the Pan T cell isolation kit (Miltenyi Biotech). Briefly, cells were counted and incubated with the required volume of antibody cocktail for 5 minutes at 4° C. before addition of microbeads and incubation for 10 minutes at 4° C. Labeled cells were retained in a magnetic column while unlabeled cells (T cells) passed through the column and were retained for use in the assay.
Cell viability was assessed by Trypan Blue exclusion and found to be >99% prior to transfer to plates. Isolated T cells were seeded out in 96 well plates at a density of 50,000 cells per well and allowed to incubate for 60 minutes in a humidified cell culture (37° C., 5% CO2) incubator prior to compound treatment. The media used for this assay (TexMACS, Miltenyi Biotech) was previously optimized for proliferation of T cells in serum free conditions.
Representative compounds of the invention (i.e., test compounds) were prepared as 30 mM stocks in 100% DMSO. Test compounds were initially diluted in media to yield 3 mM stocks before an additional 1:10 dilution in media was performed to yield working stocks of 300 μM (1% DMSO). Subsequent dilutions were performed in media (supplemented with 1% DMSO). When added to the assay plates (1:10 dilution), these yielded final concentrations in the assay plates of in 0.1% DMSO. The reference compound, Cyclosporin A, was prepared in an identical manner as above.
Unstimulated and Stimulated Control wells received an identical volume of TexMACS media/1% DMSO at this time, resulting in a final concentration of 0.1% DMSO across the plate. Mouse anti-CD3/anti-CD28 dynabeads were prepared (following the manufacturers' instructions) in TexMACS media and added to appropriate wells to achieve a final concentration of 1 bead per cell. Unstimulated Control wells then received an identical volume of TexMACS. Plates were centrifuged 72 hours after addition of dynabeads, (300×g for 3 minutes) to pellet the cells and 60% of the supernatant was removed to a fresh plate for analysis by ELISA. After removal of 60% of the supernatant for subsequent ELISA, cell proliferation was assessed using the CCK-8 assay.
Average response by the standard compound, cyclosporin A, was 1 uM.

Rat DRG = experiment: Rat dorsal root ganglion excitability response (EFS, Ca2+ transients); type: cell-based; conditions: Rattus norvegicus; Table 3; electrical field stimulation, Ca5 indicator; read-out: Scoring (EC50, Rat DRG excitability)
Procedure: Dorsal root ganglions (DRGs) were dissected from adult rats. The tissue was processed, and cells were seeded into call culture plates (48 center wells of one quadrant in 384-well plates) and cultured for 2 days prior to Electrical field stimulation (EFS). To visualize the neuronal excitability response, intracellular Ca^+2 transients were monitored using the Ca^+2 indicator, Ca5. Ca5 was added to the cultures 1 h prior to EFS. Representative test compounds of the invention (i.e., test compounds) and reference compound, tetracaine, were added in concentration-response format encompassing six concentrations, performed in duplicate. The highest concentration tested was typically 30 μM with 1 in 3 dilutions generating the subsequent concentrations.
Effects on DRG excitability by the test compounds and standard were evaluated using four EFS protocols as disclosed in Table 2.
Experimental results were performed using two separate sets of plates using separate test compound and standard dilutions, to provide n=2. In the first set of experiments, compounds were added 24 h prior to EFS to increase the possibility to also detect more long-term compound effects. In the second set of experiments the compounds were added directly prior to EFS. Excitability response to EFS was analyzed as the average fluorescence ratio (peak/baseline) change per well. All plates were evaluated using high content imaging equipment post-EFS, imaging the Ca5 background staining to detect any possible compound-related toxic effects.
Average response by the standard compound, tetracaine, was 4.05 μM.

Mice (male, C57Bl/6) = experiment: Formalin pain assay in mice; type: in vivo; conditions: Table 7; formalin 2.5%, left plantar
Procedure: Mice (male, C57BL/6) were placed singly in a Perspex chamber for approximately 30 min on three successive days to acclimate and thereby reduce stress-induced behaviors. On the fourth day, the experimental animals received a 25 μl injection of 2.5% formalin beneath the left plantar skin using a 29-gauge syringe. […] The total time spent on flinches/licking/biting of the hind paw was recorded by visual observation for every 5 min period/interval for total observation duration of 60 min in two phases, the early phase (0-5 min) and the late phase (15-40 min). Observers were blinded to the treatment group allocation.
For test compounds, the % protection from 0-60 min was used to assess activity. Scoring for the test compounds was as follows: “A” represents a % protection of 81 to 100%, “B” represents a % protection of 61 to 80%, “C” represents a % protection of 31 to 60% and “D” represents a % protection of 0 to 30%.

[1] = Metabolism by human liver microsomes; type: in vitro ADME; conditions: Table 8; 10 µM, in the presence of NADPH, 1 mg/mL protein
Procedure: Representative compounds of the invention (i.e., test compounds) and the positive control, 7-ethoxycoumarin, were prepared as stock solutions at 10 mM in DMSO and eventually diluted to 10 μM in the test plate, with an appropriate amount of acetonitrle and tris HCl buffer. Final DMSO and acetonitrile concentrations were […] and 0.5% respectively. NADPH was prepared in tris HCl buffer to a stock of 10 mM. A frozen aliquot of live microsomes was retrieved from the freezer (−80° C.) and thawed by placing the tube on wet ice. After thawing, the tubes were gently mixed and the required amount, transferred to tris HCl buffer. Test compounds or positive control were pre-incubated, separately, for 10 minutes, with liver microsomes (1 mg/mL protein), at 37° C., in 100 mM Tris HCl at pH 7.5. After preincubation the reaction was started by adding 1 mM NADPH (pre-equilibrated to […]) and the reaction allowed to proceed for 60 minutes. At 60 minutes, a 50 μL aliquot was removed and quenched with 200 uL of acetonitrile containing a mixture of internal standards (Tolbutamide (500 ng/mL) and Telmistartan (500 ng/mL)) and vortexed then centrifuged at 4000 rmp for 10 minutes (Eppendorf 5810R). The supernatant was transferred to a 96 well plate for LC-MS/MS analysis.
An LC-MS/MS method was devised for the test compounds and the control, using a AB Sciex API 4000 system coupled to a NEXAR™ UHPLC (Shimadzu) system. Analytes were separated on a Phenomenex Kinetex C18 column (50×2.1 mm, 5 μm) using a gradient that was appropriate for each compound, at a flow rate of 1 ml/minute, utilizing a mobile phase of 0.1% formic acid in MILLI-Q™ water (A) and 0.1% formic acid in acetonitrile (B). The MS instrument was operated in positive mode (ESI+)/negative (ESI−). The multiple reaction monitoring (MRM) transition for test and control compounds was used for the LC-MS/MS analysis. MRM transitions for control compound 7-ethoxycoumarinm were Quadropole 1: 191.0, Quadropole 3: 163.0, dwell time: 75 msec, using curtain gas settings of 5 V, ion-spray voltage of 5500 V, temperature of 50° C. and gas settings for nebulizer and auxiliary set to 30 and 40 psi, respectively. The interface heater was kept on. Entrance potential and collision cell exit potential were varied to tune for a specific compound.
Using a suitable LC-MS/MS method, the percentage of drug remaining at 60 minutes ([…]) was assessed by comparing the average analyte to internal standard area ratio at 60 minutes to the average analyte to internal standard area ratio at 0 time control, as a percentage, from a 5 to 10 μL sample injection.
According to the above assay, the representative compounds listed in Table 8 below were active in the Human liver microsome assay at […] and the % of drug remaining after 60 minutes (PDR60), in the presence of NADPH, was assessed by LC-MS/MS. Average PDR60 for the standard compound, 7-ethoxycoumarin was <=65% in the presence of NADPH. Scoring for the test compounds, in the presence of NADPH, was as follows: “A” represents a PDR^60 of 81 to 100%, “B” represents a PDR^60 of 61 to 80%, “C” represents a PDR^60 of 31 to 60% and “D” represents a PDR^60 of 0 to 30%.

Structure (SMILES) | Scoring (% of drug remaining after 60 minutes, PDR60) [1] | IC50 (T cells) [µM] | EC50 (Rat DRG) [µM] | Scoring (% protection from 0-60 min) (Mice (male, C57Bl/6))
CC(C)CCC[C@@H](C)[C@H]1CC[C@H]2[C@H](CNCc3ccc4c(c3)OC(F)(F)O4)[C@@H]([C@@]3(C)Cc4cn[nH]c4C[C@@H]3CO)CC[C@]12C [Ia-7, ((5R,6S)-5-((1R,3aS,4S,5S,7aR)-4-((((2,2-difluorobenzo[d][1,3]dioxol-5-yl)methyl)amino)methyl)-7a-methyl-1-((R)-6-methylheptan-2-yl)octahydro-1H-inden-5-yl)-5-methyl-4,5,6,7-tetrahydro-1H-indazol-6-yl)methanol] |  | < 2 |  | 
C[C@@]12CCC[C@H]1[C@H](CO)[C@@H]([C@@]1(C)Cc3cn[nH]c3C[C@@H]1CO)CC2 [Ia-27, ((3aS,4S,5S,7aS)-5-((5R,6S)-6-(hydroxymethyl)-5-methyl-4,5,6,7-tetrahydro-1H-indazol-5-yl)-7a-methyloctahydro-1H-inden-4-yl)methanol] |  |  | 6 to 15 | D (a % protection of 0 to 30%)
C=C1CC[C@H]2[C@H](CN)[C@@H]([C@@]3(C)Cc4c(C(F)F)n[nH]c4C[C@@H]3CO)CC[C@]12C [Ia-30, ((5R,6S)-5-((3aS,4R,5S,7aS)-4-(aminomethyl)-7a-methyl-1-methyleneoctahydro-1H-inden-5-yl)-3-(difluoromethyl)-5-methyl-4,5,6,7-tetrahydro-1H-indazol-6-yl)methanol] |  | 6 to 15 |  | 
C=C1CC[C@H]2[C@H](CN)[C@@H]([C@@]3(C)Cc4c(C(F)(F)F)n[nH]c4C[C@@H]3CO)CC[C@]12C [Ia-31, ((5R,6S)-5-((3aS,4R,5S,7aS)-4-(aminomethyl)-7a-methyl-1-methyleneoctahydro-1H-inden-5-yl)-5-methyl-3-(trifluoromethyl)-4,5,6,7-tetrahydro-1H-indazol-6-yl)methanol] |  | 2 to 6 |  | 
C=C1CC[C@H]2[C@H](CN)[C@@H]([C@@]3(C)Cc4conc4C[C@@H]3CO)CC[C@]12C [Ig-1, ((5R,6S)-5-((3aS,4R,5S,7aS)-4-(aminomethyl)-7a-methyl-1-methyleneoctahydro-1H-inden-5-yl)-5-methyl-4,5,6,7-tetrahydrobenzo[c]isoxazol-6-yl)methanol] | A (a PDR^60 of 81 to 100%) |  | 6 to 15 | C (a % protection of 31 to 60%)

Further lines, with some results ahead:

Scoring (% of drug remaining after 60 minutes, PDR60) [1] | Structure (SMILES) | IC50 (T cells) [µM] | EC50 (Rat DRG) [µM] | Scoring (% protection from 0-60 min) (Mice (male, C57Bl/6))
D (a PDR^60 of 0 to 30%) | C=C1CC[C@H]2[C@H](CN)[C@@H]([C@@]3(C)Cc4cnn(-c5ccccc5)c4C[C@@H]3CO)CC[C@]12C [Ia-8, ((5R,6S)-5-((3aS,4R,5S,7aS)-4-(aminomethyl)-7a-methyl-1-methyleneoctahydro-1H-inden-5-yl)-5-methyl-1-phenyl-4,5,6,7-tetrahydro-1H-indazol-6-yl)methanol] |  | 2 to 6 | D (a % protection of 0 to 30%)
C (a PDR^60 of 31 to 60%) | CC[C@H]1CC[C@H]2[C@H](CN)[C@@H]([C@@]3(C)Cc4cn[nH]c4C[C@@H]3CO)CC[C@]12C [Ia-29, ((5R,6S)-5-((1S,3aS,4S,5S,7aR)-4-(aminomethyl)-1-ethyl-7a-methyloctahydro-1H-inden-5-yl)-5-methyl-4,5,6,7-tetrahydro-1H-indazol-6-yl)methanol] |  | 6 to 15 | D (a % protection of 0 to 30%)
B (a PDR^60 of 61 to 80%) | C[C@@]12CCC[C@H]1[C@H](CN)[C@@H]([C@@]1(C)Cc3cn[nH]c3C[C@@H]1CO)CC2 [Ia-33, ((5R,6S)-5-((3aS,4S,5S,7aS)-4-(aminomethyl)-7a-methyloctahydro-1H-inden-5-yl)-5-methyl-4,5,6,7-tetrahydro-1H-indazol-6-yl)methanol] |  | 6 to 15 | C (a % protection of 31 to 60%)
B (a PDR^60 of 61 to 80%) | C[C@H]1CC[C@H]2[C@H](CN)[C@@H]([C@@]3(C)Cc4cn[nH]c4C[C@@H]3CO)CC[C@]12C [Ia-34, ((5R,6S)-5-((1S,3aS,4S,5S,7aR)-4-(aminomethyl)-1,7a-dimethyloctahydro-1H-inden-5-yl)-5-methyl-4,5,6,7-tetrahydro-1H-indazol-6-yl)methanol] |  | 6 to 15 | C (a % protection of 31 to 60%)
A (a PDR^60 of 81 to 100%) | C=C1[C@@H](O)C[C@H]2[C@H](CO)[C@@H]([C@@]3(C)Cc4cn[nH]c4C[C@@H]3CO)CC[C@]12C [Ia-66, (2S,3aS,4R,5S,7aS)-4-(hydroxymethyl)-5-((5R,6S)-6-(hydroxymethyl)-5-methyl-4,5,6,7-tetrahydro-1H-indazol-5-yl)-7a-methyl-1-methyleneoctahydro-1H-inden-2-ol] |  | > 15 | D (a % protection of 0 to 30%)
